Experimental data published in article PMC6315057, “Industrial scale high-throughput screening delivers multiple fast acting macrofilaricides” (Nature Communications, 2019).
Converted amounts (≈) assume the structure as drawn. Where two headings read alike, the source gives them in different places.

What was measured:
[1] = Human plasma protein binding; type: in vitro ADME; details: plasma
Description: (§1) The DMPK data used for triaging compounds, including LogD7.4, aqueous solubility, plasma protein binding, microsome and hepatocyte clearance measurements, were generated using the standard AstraZeneca UK high-throughput platform[37],[38].

LogD7.4 = type: physicochemical; details: pH 7.4
Description: as §1

[2] = system: Wolbachia in C6/36 (wAlbB) cells; assay: Confirmatory re-assessment in the insect cell screen (cell assay EC50); type: cell-based, Wolbachia pipientis wAlbB (in Aedes albopictus C6/36 cells); details: for EC50: Wolbachia, C6/36, insect cell screen, re-sourced or re-synthesised samples
Description: To further validate the hit molecules from these 9 clusters, samples were sourced either from the AstraZeneca compound inventory or through re-synthesis. All 18 samples were characterised by nuclear magnetic resonance (NMR) and mass spectroscopy to confirm their chemical structures and by HPLC/LCMS to establish their purity (Supplementary Table 5 and Supplementary Data 1). These samples were also subject to confirmatory re-assessment in both the insect cell screen and Mf assays for anti-Wolbachia potency alongside confirmation of DMPK properties (LogD7.4, aqueous solubility in pH 7.4 PBS, human microsomal turnover, rat hepatocyte turnover and human plasma protein binding) (Fig. 4, Supplementary Figure 1 and Supplementary Table 4).
On day 0, a single cryovial was recovered and the cells washed before being transferred to a T225 cm^2 flask. After a 7-day recovery Wolbachia infection level (quality control (QC)) was checked by SYTO®11 DNA staining of both the host cell nuclei and intracellular Wolbachia. The end-point read out from the Operetta® high content imaging system (Perkin Elmer) was the percentage of cells infected with Wolbachia. This was obtained from cytoplasm texture analysis by the associated Harmony® software. Cells with a >50% of the population infected with Wolbachia were classed as having a good Wolbachia level and therefore used for screening through addition of 2000 cells per well into assay ready 384-well plates containing the test compounds. […] Each plate included on-board controls; vehicle/DMSO (total/maximum Wolbachia signal) or doxycycline 5 µM (null/minimum Wolbachia signal), resulting in single shot screening of 352 compounds per plate for the primary screen. […] QC plates were also created including full columns of the following controls; DMSO (total/max), 5 μM doxycycline (null/min), as well as 50 nM doxycycline (reference/medium Wolbachia signal). Daily batches contained ~150 compound plates in addition to the QC plates. Each compound plate was foil sealed before incubation for 7 days at 26 °C, 95% humidity and atmospheric air.

[3] = system: Wolbachia within Brugia malayi Mf; assay: B. malayi microfilarial (Mf) in vitro anti-Wolbachia assay (wsp:gst qPCR); type: cell-based
Experimental: The Mf were obtained by peritoneal lavage, using a catheter, of gerbils (Meriones unguiculatus) harbouring a patent infection of B. malayi. Mf were purified using a PD-10 desalting column (Fisher), centrifuged (311 RCF for 5 min at room temperature) before the addition of 8000 Mf/well of a 96-well plate (100 µl per well) in complete media consisting of RPMI supplemented with 10% FBS, 1% penicillin streptomycin and 1% amphotericin B. […] Each plate contained doxycycline (5 µM) and DMSO controls. After incubation at 37 °C for 6 days in 5% CO2, visual assessment of Mf motility was performed and scored from 0 to 4 per well (where 0 = no movement and 4 = highly motile). DNA extraction per sample was performed using the QIAmp DNA Mini Kit before quantitative PCR was performed to obtain the ratio of Wolbachia Surface Protein gene copy number (wsp) to Glutathione S-Transferase gene copy number (gst)[36]. The DNA was amplified using the primers as indicated in Supplementary Table 6.
The wsp:gst ratio data allowed for normalisation of the Wolbachia level to the Mf biomass for each well. The change in wsp:gst for each compound compared to the DMSO control was calculated before normalisation to the onboard doxycycline control to allow for inter-assay comparison.

Rat hepatocyte clearance = type: in vitro ADME
Description: as §1

[4] = Aqueous solubility in pH 7.4 PBS; type: physicochemical; details: for solubility: PBS pH 7.4, aqueous buffer, pH 7.4 PBS, read-out: Aqueous solubility in pH7.4 PBS
Description: as §1

[5] = Human microsome clearance; type: in vitro ADME; details: for microsomal CLint: human, human microsomes
Description: as §1

THP-1 cells = assay: Mammalian cell viability counter-screen (CellTiter-Blue); type: cell-based, human; details: Homo sapiens, 48 h, read-out: HTS IC50 mammalian toxicity
Experimental: The human monocytic THP-1 cell line (ATCC® TIB-202) used for mammalian cytotoxicity evaluation was routinely cultured in roller bottles. Growth media consisted of RPMI 1640 supplemented with 10% FBS and 2 mM L-glutamine. Cells were maintained at 37 °C with 95% humidity in 5% CO2 in a shaking incubator.
All compounds selected for secondary IC50 screen were tested in parallel for mammalian cell viability using the CellTiter-Blue® Cell Viability Assay. THP1 cells were removed from culture and plated at 1 × 10^4 cells/well (40 µl) into 384-well assay ready plates and incubated at 37 °C, 5% CO2 for 48 h at 95% humidity. After the addition of CellTiter-Blue Viability reagent (8 µl of a 1:6 dilution) the assay plates were incubated for a further 2 h before fluorescence detected using a PerkinElmer EnVision™ plate reader.

[6] = Brugia malayi, 144 h, B. malayi Mf, 6 days, read-out: Mf EC50
[7] = category bounds in the picture of Fig. 4, read-out: Mf EC50 (category given in Fig. 4)

Row | fraction unbound [1] | logD (LogD7.4) | EC50 [3, 6] | EC50 [3, 7] | Rat hepatocytes CLint (Rat hepatocyte clearance) | solubility [4] | microsomal CLint [5] | Solubility (in words) [4] | Human microsomal stability (in words) [5] | Metabolic stability (in words) ([5]; in vitro, system not given) | SMILES | EC50 [2] | IC50 (THP-1 cells) | Insect cell screen activity (in words) [2] | Mf in vitro potency (in words) [3]
1 | 0.24 | 2.6 | ~161 nM | < 200 nM | 31.1 µl/min/1x106 cells | 663 µM (≈ 338 µg/mL) | 211 µL/min/mg |  |  |  | Cc1nccc(N2CCC(C(=O)N(C)CCN(C)S(=O)(=O)c3ccc(Br)cc3)CC2)n1 [1A, N-(2-((4-bromo-N-methylphenyl)sulfonamido)ethyl)-N-methyl-1-(2-methylpyrimidin-4-yl)piperidine-4-carboxamide] | 192 nM | > 30600 nM |  | 
2 | 0.021 | 3.1 | 164 nM | < 200 nM | 262.8 µl/min/1x106 cells | 71 µM (≈ 25.3 µg/mL) | 41.2 µL/min/mg |  |  |  | COc1ccc(CC(=O)Nc2[nH]nc(C)c2-c2ccccc2)c(Cl)c1 [2A, 2-(2-chloro-4-methoxyphenyl)-N-(3-methyl-4-phenyl-1H-pyrazol-5-yl)acetamide] | 242 nM | > 30600 nM |  | 
3 | 0.042 | 3.3 | ~183 nM | < 200 nM | 147.0 µl/min/1x106 cells | 538 µM (≈ 197 µg/mL) | 59.7 µL/min/mg |  |  |  | CC1COCCN1c1cc(OCc2ccccc2)nc(-c2nccn2C)n1 (stereo not shown) [3A, 4-(6-(benzyloxy)-2-(1-methyl-1H-imidazol-2-yl)pyrimidin-4-yl)-3-methylmorpholine] | 662 nM | > 30600 nM |  | 
4 | 0.078 | 3.2 | ~219 nM | 200 to 1000 nM | > 300 µl/min/1x106 cells | > 1000 µM | 92 µL/min/mg | excellent | poor |  | CCc1ccc(CN2CCCC2c2nc(C(=O)N(C)C)cs2)s1 (stereo not shown) [4A, 2-(1-((5-ethylthiophen-2-yl)methyl)pyrrolidin-2-yl)-N,N-dimethylthiazole-4-carboxamide] | 41 nM | > 30600 nM | strong | good
5 | 0.073 | 3.5 | ~271 nM | 200 to 1000 nM | 8.0 µl/min/1x106 cells | 12 µM (≈ 4.57 µg/mL) | 39.5 µL/min/mg | lower |  | moderate | Cc1nc(C(=O)NC(C)c2ccc(F)cc2)c(NC(=O)Cc2ccccc2)[nH]1 (stereo not shown) [5A, N-(1-(4-fluorophenyl)ethyl)-2-methyl-5-(2-phenylacetamido)-1H-imidazole-4-carboxamide] | 296 nM | > 30600 nM |  | comparatively good
